Reference: patent US9102671B2, “Compounds and compositions as TRK inhibitors” (Novartis AG, priority 2011, dated 2015)

Experiments:
[1] = molecular target: T1, Ba/F3 cells co-expressing full length rTrkA and mNGF (Rattus norvegicus, UniProt P35739); assay: Ba/F3 cell proliferation, BaF3/TRKA-NGF; assay type: cell-based; conditions: inhibition of proliferation, 48 hours, Bright-Glo luminescence
T1 construct: co-expressing full length rTrkA and mNGF; expressed in transfected cells; host or cells: Ba/F3 murine hematopoietic progenitor cells

[2] = molecular target: T2, Ba/F3 cells transformed with human Tel-TrkA (Homo sapiens, UniProt P04629); assay: Ba/F3 cell proliferation, Ba/F3 Tel-TrkA; assay type: cell-based; conditions: inhibition of proliferation, 48 hours, Bright-Glo luminescence; read-out: Ba/F3Tel-TrkA
T2 construct: expressed in transfected cells; host or cells: luciferase expressing Ba/F3 murine hematopoietic progenitor cell line; the other entry of the earlier key: ETV6 (P41212, Transcription factor ETV6)
Method: (§1) Test compounds were dissolved in DMSO (10 mM) and transferred into 1.4 mL flat bottom or V-shaped Matrix tubes carrying a unique 2D matrix chip by individual compound hubs. The numbers of these chips were distinctively linked to the individual compound identification numbers. The stock solutions were stored at −20° C. if not used immediately. For the test procedure the vials were defrosted and identified by a scanner whereby a working sheet is generated that guides the subsequent working steps.
(§2) Compound dilutions were made in 384 well plates. This format enabled the assay of maximally 28 individual test compounds at 11 concentrations (single points) including 2 reference compounds. The dilution protocol included the production of pre-dilution plates, master plates and assay plates: • Compound plates: 30 μL of individual compound (10 mM) DMSO solution including reference compound were transferred into columns 1 and 13 of a 384 well plate. 20 μL of DMSO were added to the rest of the wells and the compounds were serially diluted (1:3) by transferring 10 μL from a well in column 1 or 13 to the next well in column 2 or 14 respectively and successively with the help of a Minitrack robot. • Assay plates: Identical assay plates were then prepared by adding 50 nL each of compound dilutions of the compound plates into 384-well “assay plates”. In the following the compounds were mixed with 50 μL of assays components (cells or enzyme) and tested for their inhibitory activity.
(§3) The cell line used is the luciferase expressing Ba/F3 murine hematopoietic progenitor cell line transformed with human Tel-TrkA, Tel-TrkB or Tel-TrkC cDNAs (Ba/F3 EN A/B/C). These cells maintained in RPMI/10% fetal bovine serum (RPMI/FCS) supplemented with penicillin 50 mg/mL, streptomycin 50 mg/mL and L-glutamine 200 mM. Untransformed Ba/F3 cells were similarly maintained with the addition 5 ng/ml of murine recombinant IL3. 50 μl of a Ba/F3 or Ba/F3 EN A/B/C cell suspension were plated in Greiner 384 well microplates (white)) at a density of 2000 cells per well. 50 nl of serially diluted test compound (10-0.0001 mM in DMSO solution) is added to each well. The cells were incubated for 48 hours at 37° C., 5% CO2. 25 μl of Bright Glo® (Promega) luciferase substrate is added to each well. The emited luminiscence is quantified using ViewLux (PerkinElmer). IC50 values were calculated by linear regression analysis of the percentage inhibition of each compound at 11 concentrations.
In certain examples compounds of Formula (I) have IC50 values from 0.1 nM 1 μM. In other examples, compounds of Formula (I) have IC50 values from 0.0001 μM to 0.8 μM. In other examples, compounds of Formula (I) have IC50 values from 0.0001 μM to 0.6 μM. In other examples, compounds of Formula (I) have IC50 values from 0.0001 μM to 0.4 μM. In other examples, compounds of Formula (I) have IC50 values from 0.0001 μM to 0.2 μM. In other examples, compounds of Formula (I) have IC50 values from 0.0001 μM to 0.1 μM. In other examples, compounds of Formula (I) have IC50 values from 0.0001 μM to 0.08 μM. In other examples, compounds of Formula (I) have IC50 values from 0.0001 μM to 0.06 μM. In other examples, compounds of Formula (I) have IC50 values from 0.0001 μM to 0.04 μM. In other examples, compounds of Formula (I) have IC50 values from 0.0001 μM to 0.02 μM. In other examples, compounds of Formula (I) have IC50 values from 0.0001 μM to 0.01 μM. In other examples, compounds of Formula (I) have IC50 values from 0.01 μM to 1 μM.

[3] = tested on: parental (untransformed) Ba/F3 cells; assay: Ba/F3 cell proliferation, BAF3/WT (parental, IL3); assay type: cell-based, murine; conditions: Mus musculus, inhibition of proliferation of parental cells with IL3, 48 hours, Bright-Glo luminescence
Method: as §1, §2
Compounds were tested for their ability to inhibit the proliferation of wt Ba/F3 cells and Ba/F3 cells transformed with constitutively expressed luciferase reporter and BCR-ABL or Tel-FMS or other Tel fusion kinases (EGFR, JAK2, ALK, BMX, FGFR3, FGFR4, FGR2, FLT1, FLT3, IGF1R, INSR, KDR, KIT, LCK, LYN, MEK, MET, PDGFRα, PDGFRβ, RET, RON, ROS, SRC, SYK, TIE and TYRO) or BRafV600E. Parental Ba/F3 cells were maintained in media containing recombinant mouse IL3 and the kinase transformed Ba/F3 cells were maintained in media without IL-3. 7.5 nl of compounds were spotted to each well of 1536-well assay plates by Liquid handling System Echo 555 (Labcyte). 700 cells were then plated into each well of the assay plates in 7 uL culture media per well and compounds were tested at 0.17 nM to 10 uM in 3-fold serial dilutions. The cells were then incubated for 48 hours at 37° C. 3 uL of Bright-Glo® (Promega) was added to each well and the plates were read using ViewLux (PerkinElmer).
as §3, with “concentrations. […]” for “concentrations.”

T1 sequence (P35739 33-799): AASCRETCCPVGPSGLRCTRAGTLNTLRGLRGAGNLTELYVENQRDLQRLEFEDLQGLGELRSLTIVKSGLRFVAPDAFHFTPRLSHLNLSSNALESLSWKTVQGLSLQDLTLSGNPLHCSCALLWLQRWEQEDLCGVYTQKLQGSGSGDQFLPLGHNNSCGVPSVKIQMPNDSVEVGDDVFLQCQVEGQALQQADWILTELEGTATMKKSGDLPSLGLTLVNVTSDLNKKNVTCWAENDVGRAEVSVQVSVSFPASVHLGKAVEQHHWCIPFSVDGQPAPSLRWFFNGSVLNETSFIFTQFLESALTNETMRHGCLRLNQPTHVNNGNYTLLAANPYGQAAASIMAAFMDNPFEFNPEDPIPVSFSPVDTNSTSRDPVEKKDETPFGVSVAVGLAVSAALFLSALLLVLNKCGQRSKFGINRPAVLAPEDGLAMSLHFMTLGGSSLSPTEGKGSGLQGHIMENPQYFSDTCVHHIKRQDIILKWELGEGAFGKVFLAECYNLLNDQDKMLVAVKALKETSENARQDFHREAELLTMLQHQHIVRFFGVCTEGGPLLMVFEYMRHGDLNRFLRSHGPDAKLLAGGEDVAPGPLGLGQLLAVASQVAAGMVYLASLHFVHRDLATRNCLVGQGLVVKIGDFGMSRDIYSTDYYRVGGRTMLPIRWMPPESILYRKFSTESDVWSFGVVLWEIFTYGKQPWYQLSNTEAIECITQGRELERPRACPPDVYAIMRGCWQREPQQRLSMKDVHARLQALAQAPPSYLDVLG
T1 sequence (P01139 122-241 partner): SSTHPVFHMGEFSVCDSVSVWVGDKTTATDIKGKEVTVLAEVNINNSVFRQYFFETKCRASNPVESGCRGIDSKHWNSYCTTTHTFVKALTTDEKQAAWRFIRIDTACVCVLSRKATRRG
T2 sequence (P04629 510-796 limits assumed): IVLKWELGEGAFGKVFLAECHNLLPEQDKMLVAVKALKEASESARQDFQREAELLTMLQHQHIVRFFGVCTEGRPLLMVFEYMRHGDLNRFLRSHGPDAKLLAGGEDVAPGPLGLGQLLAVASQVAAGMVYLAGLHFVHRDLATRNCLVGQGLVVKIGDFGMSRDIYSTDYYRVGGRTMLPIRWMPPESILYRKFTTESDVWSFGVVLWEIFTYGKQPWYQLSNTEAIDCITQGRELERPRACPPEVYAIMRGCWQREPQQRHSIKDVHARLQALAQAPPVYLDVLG

Row | Structure (SMILES) | IC50 [1] [nM] | IC50 [2] [nM] | IC50 [3] [nM] | melting point
1 | CC(C)NC(=O)c1ccc(F)cc1C1CC(F)(F)CN1c1ccn2ncc(C(N)=O)c2c1 (stereo not shown) [Example X-18, 5-(4,4-difluoro-2-{5-fluoro-2-[(propan-2-yl)carbamoyl]phenyl}pyrrolidin-1-yl)pyrazolo[1,5-a]pyridine-3-carboxamide] | 7 | 7 | > 10000 | –
2 | N#C[C@H]1C[C@H](c2cccc(F)c2)N(c2ccn3ncc(C(N)=O)c3c2)C1 [Example X-25, 5-((2R,4S)-4-cyano-2-(3-fluorophenyl)pyrrolidin-1-yl)pyrazolo[1,5-a]pyridine-3-carboxamide] | 58 | 125 | > 10000 | –
3 | NC(=O)Nc1cnn2ccc(N3C[C@@H](F)C[C@@H]3c3cccc(F)c3)cc12 [Example X-23, 1-(5-((2R,4S)-4-fluoro-2-(3-fluorophenyl)pyrrolidin-1-yl)pyrazolo[1,5-a]pyridin-3-yl)urea] | 176 | 154 | > 10000 | –
4 | NC(=O)c1cc(F)cc([C@H]2CC(F)(F)CN2c2ccn3ncc(C(N)=O)c3c2)c1 [Example X-9, (R)-5-(2-(3-carbamoyl-5-fluorophenyl)-4,4-difluoropyrrolidin-1-yl)pyrazolo[1,5-a]pyridine-3-carboxamide] | 48 | 37 | > 10000 | –
5 | CCNC(=O)c1cnn2ccc(N3C[C@@H](F)C[C@@H]3c3cccc(F)c3)cc12 [Example X-14, N-ethyl-5-[(2R,4S)-4-fluoro-2-(3-fluorophenyl)pyrrolidin-1-yl]pyrazolo[1,5-a]pyridine-3-carboxamide] | 8 | 6 | > 10000 | –
6 | O=C(O)c1cnn2ccc(N3C[C@@H](F)C[C@@H]3c3cccc(F)c3)cc12 [Example X-3, 5-((2R,4S)-4-fluoro-2-(3-fluorophenyl)pyrrolidin-1-yl)pyrazolo[1,5-a]pyridine-3-carboxylic acid] | 110 | 147 | > 10000 | –
7 | CCOC(=O)c1cnn2ccc(N3CC(F)(F)C[C@@H]3c3cccc(F)c3)cc12 [Example X-2, (R)-ethyl 5-(4,4-difluoro-2-(3-fluorophenyl)pyrrolidin-1-yl)pyrazolo[1,5-a]pyridine-3-carboxylate] | 3 | 3 | > 10000 | –
8 | N#Cc1cc(F)cc([C@H]2CC(F)(F)CN2c2ccn3ncc(C(N)=O)c3c2)c1 [Example X-11, (R)-5-(2-(3-cyano-5-fluorophenyl)-4,4-difluoropyrrolidin-1-yl)pyrazolo[1,5-a]pyridine-3-carboxamide] | 24 | 21 | > 10000 | –
9 | NC(=O)c1cnn2ccc(N3CC(F)(F)C[C@@H]3c3cccc(F)c3)cc12 [Example X-6, (R)-5-(4,4-difluoro-2-(3-fluorophenyl)pyrrolidin-1-yl)pyrazolo[1,5-a]pyridine-3-carboxamide] | 16 | 24 | > 10000 | –
10 | NC(=O)c1cnn2ccc(N3C[C@H](O)C[C@@H]3c3cccc(F)c3)cc12 [Example X-24, 5-[(2R,4R)-2-(3-fluorophenyl)-4-hydroxypyrrolidin-1-yl]pyrazolo[1,5-a]pyridine-3-carboxamide] | 119 | 395 | > 10000 | –
11 | CCOC(=O)c1cnn2ccc(N3CC(F)(F)C[C@@H]3c3cc(F)cc(C#N)c3)cc12 [Example X-8, (R)-ethyl 5-(2-(3-cyano-5-fluorophenyl)-4,4-difluoropyrrolidin-1-yl)pyrazolo[1,5-a]pyridine-3-carboxylate] | 19 | 17 | > 10000 | –
12 | N#Cc1cc(F)cc([C@H]2C[C@H](F)CN2c2ccn3ncc(C(N)=O)c3c2)c1 [Example X-10, 5-((2R,4S)-2-(3-cyano-5-fluorophenyl)-4-fluoropyrrolidin-1-yl)pyrazolo[1,5-a]pyridine-3-carboxamide] | 8 | 5 | > 10000 | 140 °C (dec.)
13 | N#Cc1cc(F)cc([C@@H]2C[C@H](F)CN2c2ccn3ncc(C(N)=O)c3c2)c1 [Example X-27] | > 10000 | > 10000 | > 10000 | –
14 | Cc1ccc(C)c(C2CCCN2c2ccn3ncc(C(N)=O)c3c2)c1 (stereo not shown) [Example X-28] | 1090 | 2140 | > 10000 | –
15 | NC(=O)c1cnn2ccc(N3CCCC3c3ccccc3C(F)(F)F)cc12 (stereo not shown) [Example X-13, 5-{2-[2-(trifluoromethyl)phenyl]pyrrolidin-1-yl}pyrazolo[1,5-a]pyridine-3-carboxamide] | 341 | 712 | > 10000 | –
16 | O=C(NCCO)c1cnn2ccc(N3C[C@@H](F)C[C@@H]3c3cccc(F)c3)cc12 [Example X-17, 5-[(2R,4S)-4-fluoro-2-(3-fluorophenyl)pyrrolidin-1-yl]-N-(2-hydroxyethyl)pyrazolo[1,5-a]pyridine-3-carboxamide] | 14 | 9 | > 10000 | –
